Tests used:
Assay type in all cases: nucleic-acid assay
[1] = system: Nucleic Acid; experiment: Thermal denaturation in alternating poly(dA-dT)poly(dA-dT) homopolymer (AT)
[2] = system: Nucleic Acid; experiment: Thermal denaturation in sonicated poly(dA)-poly(dT) homopolymer (AT)
[3] = system: Calf thymus DNA; experiment: Thermal denaturation in sonicated calf thymus DNA (CT DNA); settings: Bos taurus
[4] = system: Nucleic Acid; experiment: Thermal denaturation in alternating poly(dG-dC)-poly(dG-dC) homopolymer (GC)
[5] = system: Nucleic Acid; experiment: Ratio between poly-dAdT and poly-dGdC binding

Row | SMILES | Tm [1] [°C] | Tm [2] [°C] | Tm [3] [°C] | Tm [4] [°C] | Ratio [5]
1 | N=C(N)c1ccc2[nH]c(CCCCCCc3nc4cc(C(=N)N)ccc4[nH]3)nc2c1 | 28 | 34 | 13.5 | 3.5 | 8
2 | CN1CCN(c2ccc3[nH]c(-c4ccc5[nH]c(-c6ccc(O)cc6)nc5c4)nc3c2)CC1 | 24.1 | 32.4 | 14.1 | 2.5 | 10
3 | Cc1cc(-c2nc3cc(C(=N)N)ccc3[nH]2)c(C)cc1-c1nc2cc(C(=N)N)ccc2[nH]1 | 26.5 | 29 | 15.6 | 3.7 | 7
4 | OC/C=N\c1ccc2[nH]c(CCc3nc4cc(/N=C/CO)ccc4[nH]3)nc2c1 | 1.4 | 4.5 | 2 | 0.7 | 3
5 | N=C(N)c1ccc2c(ccn2CCCn2ccc3cc(C(=N)N)ccc32)c1 | 20.3 | 19.2 | 13.7 | 6.5 | 3.1
6 | CC[n+]1c(-c2ccccc2)c2cc(N)ccc2c2ccc(N)cc21 | 16.8 | 9.9 | 12.4 | 5.3 | 3
7 | c1cc2[nH]c(CCCCc3nc4cc(C5=NCCN5)ccc4[nH]3)nc2cc1C1=NCCN1 | 28.9 | 34.5 | 15.3 | 4.6 | 6
8 | c1cc2[nH]c(Cc3nc4cc(C5=NCCN5)ccc4[nH]3)nc2cc1C1=NCCN1 | 10.7 | 13.5 | 6.9 | 4.1 | 3
9 | N=C(N)c1ccc2[nH]c(CCCCCc3nc4cc(C(=N)N)ccc4[nH]3)nc2c1 | 18.3 | 24.7 | 10.1 | 3.3 | 5
10 | N=C(N)c1ccc2c(ccn2CCCCn2ccc3cc(C(=N)N)ccc32)c1 | 16.3 | 18.2 | 12.1 | 7.3 | 2.2
11 | N=C(N)c1ccc2[nH]c(-c3ccc(-c4nc5cc(C(=N)N)ccc5[nH]4)cc3)nc2c1 | 21.7 | 27.5 | 13.3 | 3.1 | 7
12 | c1cc2[nH]c(CCc3nc4cc(C5=NCCCN5)ccc4[nH]3)nc2cc1C1=NCCCN1 | 39.5 | 45.1 | 19.7 | 2.7 | 15
13 | c1ccc2[nH]c(CCc3nc4ccccc4[nH]3)nc2c1 | 0.1 | 2.1 | 4.3 | 1 | 
14 | N=C(N)c1ccc2[nH]c(CCCCCCCCc3nc4cc(C(=N)N)ccc4[nH]3)nc2c1 | 21.2 | 22.8 | 10.2 | 3.2 | 7
15 | N=C(N)c1ccc2nc(Cc3nc4ccc(C(=N)N)cc4[nH]3)[nH]c2c1 | 11.5 | 9.2 | 7.6 | 3.5 | 3
16 | c1cc2[nH]c(CCc3nc4cc(N5CCOCC5)ccc4[nH]3)nc2cc1N1CCOCC1 | 0.8 | 0.9 | 0.6 | -0.3 | 
17 | N=C(N)c1ccc2c(ccn2CCCCCn2ccc3cc(C(=N)N)ccc32)c1 | 12.9 | 15.3 | 10.2 | 5 | 2.6
18 | c1cc2[nH]c(CCCc3nc4cc(C5=NCCN5)ccc4[nH]3)nc2cc1C1=NCCN1 | 20.1 | 24.8 | 9.9 | 3.3 | 6
19 | N=C(N)c1ccc2[nH]c(/C=C/c3nc4cc(C(=N)N)ccc4[nH]3)nc2c1 | 42.4 | 46.1 | 21.8 | 5.8 | 7
20 | CC(C)NC(=N)c1ccc2[nH]c(CCc3nc4cc(C(=N)NC(C)C)ccc4[nH]3)nc2c1 | 32.9 | 37.3 | 19.2 | 3.3 | 10

Row | SMILES | Tm [1] [°C] | Tm [2] [°C] | Tm [3] [°C] | Tm [4] [°C] | Ratio [5]
21 | c1cc2[nH]c(CCc3nc4cc(C5=NCCN5)ccc4[nH]3)nc2cc1C1=NCCN1 | 34.6 | 40 | 18.5 | 3 | 
22 | CC(C)NC(=N)c1ccc2[nH]c(-c3ccc(-c4nc5cc(C(=N)NC(C)C)ccc5[nH]4)cc3)nc2c1 | 45 | 44.3 | 22.3 | 5.6 | 8
23 | C1=NCCCN1Cc1ccc2[nH]c(CCc3nc4cc(CN5C=NCCC5)ccc4[nH]3)nc2c1 | 28.9 | 30.7 | 13.3 | 1.6 | 18
24 | N=C(N)c1ccc2[nH]c(CCCCc3nc4cc(C(=N)N)ccc4[nH]3)nc2c1 | 31.3 | 33.5 | 15.9 | 3.3 | 9
25 | c1c[nH]c(-c2ccc(-c3cc4ccc(-c5ncc[nH]5)cc4[nH]3)cc2)n1 | 42.7 | 45.3 | 22.4 | 9.4 | 5
26 | N=C(N)c1ccc2c(ccn2Cc2ccc(Cn3ccc4cc(C(=N)N)ccc43)cc2)c1 | 11.9 | 10.8 | 9.3 | 5.4 | 2.2
27 | N=C(N)c1ccc2[nH]c(CCCc3nc4cc(C(=N)N)ccc4[nH]3)nc2c1 | 20.1 | 30.6 | 10.6 | 3.3 | 6
28 | CNc1ccc2[nH]c(CCc3nc4cc(NC)ccc4[nH]3)nc2c1 | 14.1 | 34.2 | 12.8 | 3.9 | 4
29 | C/C(=C(/C)c1nc2cc(C(=N)N)ccc2[nH]1)c1nc2cc(C(=N)N)ccc2[nH]1 | 15.6 | 17.3 | 14.1 | 4.6 | 3
30 | N=C(N)c1ccc(OCCCCCOc2ccc(C(=N)N)cc2)cc1 | 20.2 | 22.9 | 10.7 | 3.2 | 6
31 | N=C(N)c1ccc2c(ccn2CCCCCCn2ccc3cc(C(=N)N)ccc32)c1 | 13.4 | 17.7 | 10.5 | 5.9 | 2.3
32 | O=[N+]([O-])c1ccc2[nH]c(CCc3nc4cc([N+](=O)[O-])ccc4[nH]3)nc2c1 | 0.2 | 0.5 | 1.5 | 2.6 | 
33 | CC(C)NC(=N)c1ccc2[nH]c(/C=C/c3nc4cc(C(=N)NC(C)C)ccc4[nH]3)nc2c1 | 22.5 | 31.6 | 22.8 | 5.5 | 5
34 | N=C(N)c1ccc2[nH]c(Cc3nc4ccccc4[nH]3)nc2c1 | 1 | 1.3 | 1.4 | 0.2 | 
35 | Cn1cc(NC(=O)c2cc(NC(=O)CNC(=N)N)cn2C)cc1C(=O)NCCC(=N)N | 35.1 | 46.6 | 19 | 1.1 | 32
36 | N=C(N)c1ccc2c(ccn2Cc2cccc(Cn3ccc4cc(C(=N)N)ccc43)c2)c1 | 9.2 | 8.1 | 8.1 | 4 | 2.3
37 | Nc1ccc2nc(CCc3nc4ccc(N)cc4[nH]3)[nH]c2c1 | 0.6 | 3 | 1.6 | 2.6 | 
38 | N=C(N)c1ccc2[nH]c(CCc3nc4cc(C(=N)N)ccc4[nH]3)nc2c1 | 37.2 | 42.4 | 18.5 | 4 | 4
39 | N=C(N)c1ccc(-c2cc3ccc(C(=N)N)cc3[nH]2)cc1 | 40.5 | 38.8 | 21.5 | 6.9 | 6
40 | N=C(N)c1ccc2[nH]c(-c3cccc(-c4nc5cc(C(=N)N)ccc5[nH]4)c3)nc2c1 | 23.9 | 34.6 | 12.8 | 5.6 | 4
